Laboratory results: patent US8106072B2, “7- (4-substituted-3-cyclopropylaminomethyl-1-pyrrolidinyl) quinolonecarboxylic acid derivative” (Kyorin Pharmaceutical Co., Ltd., priority 2003, dated 2012)
Converted amounts (≈) assume the structure as drawn.

Tests used:
Assay in all cases: In vitro antibacterial activity (MIC, agar plate dilution)
Format in all cases: cell-based
S. aureus MR5867 = details: Staphylococcus aureus, S. aureus MR5867 (methicillin-resistant S. aureus), Mueller-Hinton agar
Description: (§1) The in-vitro antibacterial activity of the compound of the present invention, as measured by the minimum inhibitory concentration (MIC), was determined by the agar plate dilution technique using Mueller-Hinton agar medium. The technique met the criteria specified by the National Committee for Clinical Laboratory Standard (1997) [NCCLS. Methods for Dilution Antibacterial Susceptibility Tests for Bacteria that grow Aerobically—Forth Edition: Approved Standard m7-A4. NCCLS, Villanova, Pa.]. For Streptococcus pneumonia and Enterococcus, the MIC values were determined by using Muller-Hinton agar supplemented with 5% defibrinated horse blood.

S. aureus MS16401 = details: Staphylococcus aureus, S. aureus MS16401 (quinolone-resistant S. aureus), Mueller-Hinton agar
Description: as §1

E. faecalis IID682 = details: Enterococcus faecalis, Muller-Hinton agar supplemented with 5% defibrinated horse blood
Description: as §1

S. aureus Smith = details: Staphylococcus aureus, Mueller-Hinton agar
Description: as §1

S. pneumoniae Type III = details: Streptococcus pneumoniae, Muller-Hinton agar supplemented with 5% defibrinated horse blood
Description: as §1

Structure (SMILES): COc1c(N2C[C@@H](CNC3CC3)[C@H](C)C2)c(F)cc2c(=O)c(C(=O)O)cn(C3CC3)c12 (relative stereo) [Example 5, 1-cyclopropyl-7-(trans-3-cyclopropylaminomethyl-4-methyl-1-pyrrolidinyl)-6-fluoro-1,4-dihydro-8-methoxy-4-oxo-3-quinolinecarboxylic acid]
- MIC (S. aureus MR5867): 8 µg/mL (≈ 18.6 µM)
- MIC (S. aureus MS16401): 16 µg/mL (≈ 37.3 µM)
- MIC (E. faecalis IID682): 125 µg/mL (≈ 291 µM)
- MIC (S. aureus Smith): 8 µg/mL (≈ 18.6 µM)
- MIC (S. pneumoniae Type III): 31 µg/mL (≈ 72.2 µM)

Structure (SMILES): COc1c(N2C[C@@H](CNC3CC3)[C@H](C(F)(F)F)C2)c(F)cc2c(=O)c(C(=O)O)cn(C3CC3)c12 (relative stereo) [Example 6, 1-cyclopropyl-7-(trans-3-cyclopropylaminomethyl-4-trifluoromethyl-1-pyrrolidinyl)-6-fluoro-1,4-dihydro-8-methoxy-4-oxo-3-quinolinecarboxylic acid]
- MIC (S. aureus MR5867): 8 µg/mL (≈ 16.5 µM)
- MIC (S. aureus MS16401): 63 µg/mL (≈ 130 µM)
- MIC (E. faecalis IID682): 250 µg/mL (≈ 517 µM)
- MIC (S. aureus Smith): 31 µg/mL (≈ 64.1 µM)
- MIC (S. pneumoniae Type III): 63 µg/mL (≈ 130 µM)

Structure (SMILES): COc1c(N2C[C@H](CNC3CC3)[C@H](F)C2)c(F)cc2c(=O)c(C(=O)O)cn(C3CC3)c12 [Example 1, 1-cyclopropyl-7-[(3S,4S)-3-cyclopropylaminomethyl-4-fluoro-1-pyrrolidinyl]-6-fluoro-1,4-dihydro-8-methoxy-4-oxo-3-quinolinecarboxylic acid]
- MIC (S. aureus MR5867): 8 µg/mL (≈ 18.5 µM)
- MIC (S. aureus MS16401): 4 µg/mL (≈ 9.23 µM)
- MIC (E. faecalis IID682): 63 µg/mL (≈ 145 µM)
- MIC (S. aureus Smith): 8 µg/mL (≈ 18.5 µM)
- MIC (S. pneumoniae Type III): ≤ 8 µg/mL

Structure (SMILES): COc1c(N2C[C@H](CNC3CC3)[C@H](F)C2)ccc2c(=O)c(C(=O)O)cn(C3CC3)c12 [Example 2, 1-cyclopropyl-7-[(3S,4S)-3-cyclopropylaminomethyl-4-fluoro-1-pyrrolidinyl]-1,4-dihydro-8-methoxy-4-oxo-3-quinolinecarboxylic acid]
- MIC (S. aureus MR5867): 16 µg/mL (≈ 38.5 µM)
- MIC (S. aureus MS16401): 31 µg/mL (≈ 74.6 µM)
- MIC (E. faecalis IID682): 125 µg/mL (≈ 301 µM)
- MIC (S. aureus Smith): 8 µg/mL (≈ 19.3 µM)
- MIC (S. pneumoniae Type III): 31 µg/mL (≈ 74.6 µM)

Structure (SMILES): O=C(O)c1cn(C2CC2)c2c(OC(F)F)c(N3C[C@H](CNC4CC4)[C@H](F)C3)c(F)cc2c1=O [Example 3, 1-cyclopropyl-7-[(3S,4S)-3-cyclopropylaminomethyl-4-fluoro-1-pyrrolidinyl]-6-fluoro-8-difluoromethoxy-1,4-dihydro-4-oxo-3-quinolinecarboxylic acid]
- MIC (S. aureus MR5867): 8 µg/mL (≈ 17 µM)
- MIC (S. aureus MS16401): 8 µg/mL (≈ 17 µM)
- MIC (E. faecalis IID682): 125 µg/mL (≈ 266 µM)
- MIC (S. aureus Smith): 8 µg/mL (≈ 17 µM)
- MIC (S. pneumoniae Type III): 16 µg/mL (≈ 34.1 µM)

Structure (SMILES): O=C(O)c1cn(C2CC2)c2c(OC(F)F)c(N3C[C@H](CNC4CC4)[C@H](F)C3)ccc2c1=O [Example 4, 1-cyclopropyl-7-[(3S,4S)-3-cyclopropylaminomethyl-4-fluoro-1-pyrrolidinyl]-8-difluoromethoxy-1,4-dihydro-4-oxo-3-quinolinecarboxylic acid]
- MIC (S. aureus MR5867): 31 µg/mL (≈ 68.7 µM)
- MIC (S. aureus MS16401): 63 µg/mL (≈ 140 µM)
- MIC (E. faecalis IID682): 500 µg/mL (≈ 1110 µM)
- MIC (S. aureus Smith): 16 µg/mL (≈ 35.4 µM)
- MIC (S. pneumoniae Type III): 63 µg/mL (≈ 140 µM)

Structure (SMILES): COc1c(N2C[C@H](CNC3CC3)[C@@H](C)C2)ccc2c(=O)c(C(=O)O)cn(C3CC3)c12 [Example 7, 1-cyclopropyl-7-[(3S,4R)-3-cyclopropylaminomethyl-4-methyl-1-pyrrolidinyl]-1,4-dihydro-8-methoxy-4-oxo-3-quinolinecarboxylic acid]
- MIC (S. aureus MR5867): 63 µg/mL (≈ 153 µM)
- MIC (S. aureus MS16401): 125 µg/mL (≈ 304 µM)
- MIC (E. faecalis IID682): 250 µg/mL (≈ 608 µM)
- MIC (S. aureus Smith): 31 µg/mL (≈ 75.3 µM)
- MIC (S. pneumoniae Type III): 63 µg/mL (≈ 153 µM)

Structure (SMILES): COc1c(N2C[C@@H](CNC3CC3)[C@H](C)C2)ccc2c(=O)c(C(=O)O)cn(C3CC3)c12 [Example 8, 1-cyclopropyl-7-[(3R,4S)-3-cyclopropylaminomethyl-4-methyl-1-pyrrolidinyl]-1,4-dihydro-8-methoxy-4-oxo-3-quinolinecarboxylic acid]
- MIC (S. aureus MR5867): 31 µg/mL (≈ 75.3 µM)
- MIC (S. aureus MS16401): 63 µg/mL (≈ 153 µM)
- MIC (E. faecalis IID682): 500 µg/mL (≈ 1220 µM)
- MIC (S. aureus Smith): 31 µg/mL (≈ 75.3 µM)
- MIC (S. pneumoniae Type III): 125 µg/mL (≈ 304 µM)

Structure (SMILES): COc1c(N2C[C@H](CNC3CC3)[C@@H](F)C2)c(F)cc2c(=O)c(C(=O)O)cn(C3CC3)c12 [Example 9, 1-cyclopropyl-7-[(3S,4R)-3-cyclopropylaminomethyl-4-fluoro-1-pyrrolidinyl]-6-fluoro-1,4-dihydro-8-methoxy-4-oxo-3-quinolinecarboxylic acid]
- MIC (S. aureus MR5867): ≤ 8 µg/mL
- MIC (S. aureus MS16401): 16 µg/mL (≈ 36.9 µM)
- MIC (E. faecalis IID682): 63 µg/mL (≈ 145 µM)
- MIC (S. aureus Smith): ≤ 8 µg/mL
- MIC (S. pneumoniae Type III): ≤ 8 µg/mL
